# Laboratory results from publication PMC11106456, “Increased Vasoactive Intestinal Peptide (VIP) in polycystic ovary syndrome patients undergoing IVF” (Frontiers in Endocrinology, 2024).
# Experiment: Biological stability of VIP in follicular fluid (ELISA, during defrosting)
# Assay type: in vitro ADME
# Conditions: human follicular fluid samples from IVF patients, stored at -80°C, measured during defrosting process; read-out sandwich ELISA (450 nm); p<0.05; Supplementary Figure 1
# Description: FF was obtained after oocyte retrieval during IVF according to the following procedure. The follicular fluid aspirated from each patient was pooled in conical bottomed 15 ml polypropylene tubes and centrifugated at 1000 g for 3 minutes at 21°C. The supernatant was collected, transported to the laboratory and stored at -80°C until further analysis.
# The enzyme-linked immunosorbent assay (ELISA) used to quantify VIP in follicular samples was based on the principle of sandwich enzyme immunoassay. The quantification was performed following manufacturer’s protocol of ELISA kit (ELK Biotechnology CO., Ltd). Briefly, the microtiter plate provided has been pre-coated with an antibody specific for VIP. 100 μL of standards and samples were added to the appropriate microtiter plate wells and incubated for 80 minutes at 37°C. After the wash, 100 μl/well of biotin-conjugated antibody solution was added and incubated for 50 minutes at 37°C. […] Next, a final wash was performed and 90 μL of 5-5’-tetramethylbenzidine (TMB) substrate solution was added and the color development was monitored and quantified after the addition of sulfuric acid solution. The absorbance was measured spectrophotometrically at 450 nm by using microplate spectrophotometer (Labsystem Multiskan MS). […] The concentration of VIP in the samples was determined by comparing the optical density of the samples to the standard curve. […]
structure (smiles),measurement,value
"CC[C@H](C)[C@H](NC(=O)[C@H](CO)NC(=O)[C@H](CC(N)=O)NC(=O)[C@H](CC(C)C)NC(=O)[C@H](Cc1ccc(O)cc1)NC(=O)[C@H](CCCCN)NC(=O)[C@H](CCCCN)NC(=O)[C@@H](NC(=O)[C@H](C)NC(=O)[C@H](CCSC)NC(=O)[C@H](CCC(N)=O)NC(=O)[C@H](CCCCN)NC(=O)[C@H](CCCN=C(N)N)NC(=O)[C@H](CC(C)C)NC(=O)[C@H](CCCN=C(N)N)NC(=O)[C@@H](NC(=O)[C@H](Cc1ccc(O)cc1)NC(=O)[C@H](CC(N)=O)NC(=O)[C@H](CC(=O)O)NC(=O)[C@@H](NC(=O)[C@H](Cc1ccccc1)NC(=O)[C@@H](NC(=O)[C@H](C)NC(=O)[C@H](CC(=O)O)NC(=O)[C@H](CO)NC(=O)[C@@H](N)Cc1c[nH]cn1)C(C)C)[C@@H](C)O)[C@@H](C)O)C(C)C)C(=O)N[C@@H](CC(C)C)C(=O)N[C@@H](CC(N)=O)C(N)=O [VIP, Vasoactive intestinal peptide]",VIP concentration in follicular fluid over time (biological stability),significant reduction
